Source: patent publication US20260184707A1, “PHARMACEUTICAL COMPOUNDS FOR THE TREATMENT OF COMPLEMENT MEDIATED DISORDERS” (ALEXION PHARMACEUTICALS, INC., priority 2022, published 2026)

Molecular target: T1, Human complement C1s enzyme (Homo sapiens, UniProt P09871)
T1 construct: purified from human serum, Complement Technology, Inc; purchased Complement Technology, Inc; host or cells: human serum (plasma-derived native protein)
T1 sequence (P09871 438-688 limits assumed): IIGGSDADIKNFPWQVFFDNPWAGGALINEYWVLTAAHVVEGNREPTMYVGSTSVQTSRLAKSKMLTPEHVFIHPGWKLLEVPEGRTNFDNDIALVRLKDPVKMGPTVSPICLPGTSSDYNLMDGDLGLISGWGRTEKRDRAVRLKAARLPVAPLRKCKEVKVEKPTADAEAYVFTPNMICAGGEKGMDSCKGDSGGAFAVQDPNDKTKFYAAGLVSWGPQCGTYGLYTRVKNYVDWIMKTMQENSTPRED
T1 sequence (P09871 16-437 partner limits assumed): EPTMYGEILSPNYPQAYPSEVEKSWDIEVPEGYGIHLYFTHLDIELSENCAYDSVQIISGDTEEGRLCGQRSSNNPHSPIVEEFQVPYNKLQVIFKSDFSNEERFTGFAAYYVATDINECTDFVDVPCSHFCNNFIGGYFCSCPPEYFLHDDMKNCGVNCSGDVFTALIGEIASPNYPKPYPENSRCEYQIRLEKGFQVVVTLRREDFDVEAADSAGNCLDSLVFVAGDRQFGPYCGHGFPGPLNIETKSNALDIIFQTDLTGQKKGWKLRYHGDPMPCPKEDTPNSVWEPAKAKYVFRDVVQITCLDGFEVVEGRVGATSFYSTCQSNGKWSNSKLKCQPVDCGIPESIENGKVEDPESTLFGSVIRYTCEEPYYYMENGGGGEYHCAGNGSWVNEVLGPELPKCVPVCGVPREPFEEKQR
Experiment: Human C1s enzyme assay
Type: biochemical
Settings: human complement C1s enzyme 1.16 nM, substrate Z-L-Lys-SBzl, A405; read-out: IC50 (Stars)
How it was run: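 Thioesterase activity followed colorimetrically (DTNB, A405, 30-s reads) using 100 μM Z-L-Lys-SBzl substrate. Enzyme, human serum-derived C1s at 1.16 nM final, was incubated with test compound for 5 min, room temperature, pH 7.5 Tris buffer with 1 M NaCl. Rate-versus-concentration data fitted by nonlinear regression for IC50.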

Question: Which IC50 does the source give for O=C(Cn1c(-c2ccccc2)ncc(NC(=O)c2cc3ccc2CCc2ccc(cc2)CC3)c1=O)NCc1cc2cnccc2[nH]1 [Compound 83, N-(1-(2-(((1H-pyrrolo[3,2-c]pyridine-2-yl)methyl)amino)-2-oxoethyl)-6-oxo-2-phenyl-1,6-dihydropyrimidin-5-yl)-1,4(1,4)-dibenzenacyclohexaphane-1^2-carboxamide] here?
Answer: Its IC50 is > 1000 nM.

Question: With CS(=O)(=NC#N)c1ccc(CCCNc2cnc(-c3ccccc3)n(CC(=O)NCc3cc4cnccc4[nH]3)c2=O)cc1 (centres unmarked) [Compound 84, N-((1H-pyrrolo[3,2-c]pyridine-2-yl)methyl)-2-(5-((3-(4-(N-cyano-S-methylsulfonimidoyl)phenyl)propyl)amino)-6-oxo-2-phenylpyrimidin-1(6H)-yl)acetamide] as the compound, how does the IC50 read?
Answer: Its IC50 is < 100 nM.

Question: Which IC50 does the source give for Cc1c(NCCCc2ccccc2)ccc(-c2ccccc2)c1CC(=O)NCc1cc2cnccc2[nH]1 [Compound 85, N-((1H-pyrrolo[3,2-c]pyridine-2-yl)methyl)-2-(3-methyl-4-((3-phenylpropyl)amino)-[1,1′-biphenyl]-2-yl)acetamide] here?
Answer: The IC50 was > 1000 nM.

Question: Which IC50 does the source give for O=C(Cn1c(-c2ccc(OC3COC3)cc2)ncc(NCCCc2ccccc2)c1=O)NCc1cc2cnccc2[nH]1 [Compound 86, N-((1H-pyrrolo[3,2-c]pyridine-2-yl)methyl)-2-(2-(4-(oxetan-3-yloxy)phenyl)-6-oxo-5-((3-phenylpropyl)amino)pyrimidin-1(6H)-yl)acetamide] here?
Answer: Its IC50 is < 100 nM.

Question: CO[C@@H]1CO[C@H]2[C@@H]1OC[C@H]2Oc1ncc(NCCCc2ccccc2)c(=O)n1CC(=O)NCc1cc2cnccc2[nH]1 [Compound 87, N-((1H-pyrrolo[3,2-c]pyridine-2-yl)methyl)-2-(2-(((3R,3aR,6R,6aR)-6-methoxyhexahydrofuro[3,2-b]furan-3-yl)oxy)-6-oxo-5-((3-phenylpropyl)amino)pyrimidin-1(6H)-yl)acetamide] was tested. Which IC50 did it give?
Answer: Its IC50 is 100 to 1000 nM.

Question: O=C(Cn1c(-c2ccccc2)ncc(NCCCC(=O)c2ccc(Oc3ccccc3)cc2)c1=O)NCc1cc2cnccc2[nH]1 [Compound 88, N-((1H-pyrrolo[3,2-c]pyridin-2-yl)methyl)-2-(6-oxo-5-((4-oxo-4-(4-phenoxyphenyl)but-yl)amino)-2-phenylpyrimidin-1(6H)-yl)acetamide] was tested. Which IC50 did it give?
Answer: The IC50 was < 100 nM.

Question: How did the IC50 turn out when CCOP(=O)(COc1ccc(-c2ncc(NCCCc3ccccc3)c(=O)n2CC(=O)NCc2cc3cnccc3[nH]2)cc1)OCC [Compound 89, diethyl ((4-(1-(2-(((1H-pyrrolo[3,2-c]pyridine-2-yl)methyl)amino)-2-oxoethyl)-6-oxo-5-((3-phenylpropyl)amino)-1,6-dihydropyrimidin-2-yl)phenoxy)methyl)phosphonate] was run?
Answer: Its IC50 is < 100 nM.

Question: Which IC50 does the source give for O=C(Cn1c(-c2ccccc2)ncc(NC(=O)CNC(=O)c2ccc(Oc3ccccc3)cc2)c1=O)NCc1cc2cnccc2[nH]1 [Compound 90, N-(2-((1-(2-(((1H-pyrrolo[3,2-c]pyridin-2-yl)methyl)amino)-2-oxoethyl)-6-oxo-2-phenyl-1,6-dihydropyrimidin-5-yl)-amino)-2-oxoethyl)-4-phenoxy-benzamide] here?
Answer: The IC50 was < 100 nM.

Question: Which IC50 does the source give for CP(=O)(O)c1ccc(CCCNc2cnc(-c3ccccc3)n(CC(=O)NCc3cc4cnccc4[nH]3)c2=O)cc1 [Compound 91, (4-(3-((1-(2-(((1H-pyrrolo[3,2-c]pyridine-2-yl)methyl)amino)-2-oxoethyl)-6-oxo-2-phenyl-1,6-dihydropyrimidin-5-yl)amino)propyl)phenyl)(methyl)phosphinic acid] here?
Answer: The IC50 was < 100 nM.

Question: For O=C(Cn1c(-c2ccccc2)ncc(NC(=O)c2ccc(-c3ccc(F)cc3F)cc2)c1=O)NCc1cc2cnccc2[nH]1 [Compound 92, N-(1-(2-(((1H-pyrrolo[3,2-c]pyridin-2-yl)methyl)amino)-2-oxoethyl)-6-oxo-2-phenyl-1,6-dihydropyrimidin-5-yl)-2′,4′-difluoro-[1,1′-biphenyl]-4-carboxamide], which IC50 is on record?
Answer: Its IC50 is < 100 nM.

Question: How did the IC50 turn out when O=C(Cn1c(-c2ccccc2)ncc(NC(=O)c2ccc(-c3cnco3)cc2)c1=O)NCc1cc2cnccc2[nH]1 [Compound 93, N-(1-(2-(((1H-pyrrolo[3,2-c]pyridin-2-yl)methyl)amino)-2-oxoethyl)-6-oxo-2-phenyl-1,6-dihydropyrimidin-5-yl)-4-(oxazol-5-yl)benzamide] was run?
Answer: The IC50 was < 100 nM.

Question: With O=C(Cn1c(-c2ccccc2)ncc(NC(=O)c2ccc(Oc3nccs3)cc2)c1=O)NCc1cc2cnccc2[nH]1 [Compound 94, N-(1-(2-(((1H-pyrrolo[3,2-c]pyridin-2-yl)methyl)amino)-2-oxoethyl)-6-oxo-2-phenyl-1,6-dihydropyrimidin-5-yl)-4-(thiazol-2-yloxy)benzamide] as the compound, how does the IC50 read?
Answer: Its IC50 is < 100 nM.

Question: Which IC50 does the source give for CO[C@@H]1CO[C@H]2[C@@H]1OC[C@H]2OCCCNc1cnc(-c2ccccc2)n(CC(=O)NCc2cc3cnccc3[nH]2)c1=O [Compound 95, N-((1H-pyrrolo[3,2-c]pyridine-2-yl)methyl)-2-(5-((3-(((3R,3aR,6R,6aR)-6-methoxyhexahydrofuro[3,2-b]furan-3-yl)oxy)propyl)amino)-6-oxo-2-phenylpyrimidin-1(6H)-yl)acetamide] here?
Answer: The IC50 was < 100 nM.

Question: O=C(Cn1c(-c2ccc(S(F)(F)(F)(F)F)cc2)ncc(NCCCc2ccccc2)c1=O)NCc1cc2cnccc2[nH]1 [Compound 96, N-((1H-pyrrolo[3,2-c]pyridine-2-yl)methyl)-2-(6-oxo-2-(4-(pentafluoro-λ^6-sulfanyl)phenyl)-5-((3-phenylpropyl)amino)pyrimidin-1(6H)-yl)acetamide] was tested. Which IC50 did it give?
Answer: Its IC50 is < 100 nM.

Question: With O=C(Cn1c(-c2ccccc2)ncc(NC(=O)c2ccc3oc4ccccc4c3c2)c1=O)NCc1cc2cnccc2[nH]1 [Compound 97, N-(1-(2-(((1H-pyrrolo[3,2-c]pyridin-2-yl)methyl)amino)-2-oxoethyl)-6-oxo-2-phenyl-1,6-dihydropyrimidin-5-yl)dibenzo [b,d]furan-2-carboxamide] as the compound, how does the IC50 read?
Answer: Its IC50 is < 100 nM.

Question: Which IC50 does the source give for COc1ccc(-c2ccc(C(=O)Nc3cnc(-c4ccccc4)n(CC(=O)NCc4cc5cnccc5[nH]4)c3=O)cc2)cc1 [Compound 98, N-(1-(2-(((1H-pyrrolo[3,2-c]pyridin-2-yl)methyl)amino)-2-oxoethyl)-6-oxo-2-phenyl-1,6-dihydropyrimidin-5-yl)-4′-methoxy-[1,1′-biphenyl]-4-carboxamide] here?
Answer: Its IC50 is < 100 nM.

Question: O=C(Cn1c(-c2ccccc2)ncc(NC(=O)c2ccc(-c3ccc(F)cc3)cc2)c1=O)NCc1cc2cnccc2[nH]1 [Compound 99, N-(1-(2-(((1H-pyrrolo[3,2-c]pyridin-2-yl)methyl)amino)-2-oxoethyl)-6-oxo-2-phenyl-1,6-dihydropyrimidin-5-yl)-4′-fluoro-[1,1′-biphenyl]-4-carboxamide] was tested. Which IC50 did it give?
Answer: Its IC50 is < 100 nM.

Question: Which IC50 does the source give for O=C(Cn1c(-c2ccccc2)cnc(NC(=O)c2ccc(-c3ccccc3)cc2)c1=O)NCc1cc2cnccc2[nH]1 [Compound 100, N-(4-(2-(((1H-pyrrolo[3,2-c]pyridin-2-yl)methyl)amino)-2-oxoethyl)-3-oxo-5-phenyl-3,4-dihydropyrazin-2-yl)-[1,1′-biphenyl]-4-carboxamide] here?
Answer: Its IC50 is < 100 nM.

Question: How did the IC50 turn out when O=C(Cn1c(-c2ccccc2)cnc(NC(=O)c2ccc3oc4ccccc4c3c2)c1=O)NCc1cc2cnccc2[nH]1 [Compound 101, N-(4-(2-(((1H-pyrrolo[3,2-c]pyridin-2-yl)methyl)amino)-2-oxoethyl)-3-oxo-5-phenyl-3,4-dihydropyrazin-2-yl)dibenzo [b,d]furan-2-carboxamide] was run?
Answer: The IC50 was < 100 nM.

Question: O=C(Cn1c(-c2ccccc2)ncc(NC(=O)c2cccc(-c3ccco3)c2)c1=O)NCc1cc2cnccc2[nH]1 [Compound 102, N-(1-(2-(((1H-pyrrolo[3,2-c]pyridin-2-yl)methyl)amino)-2-oxoethyl)-6-oxo-2-phenyl-1,6-dihydropyrimidin-5-yl)-3-(furan-2-yl)benzamide] was tested. Which IC50 did it give?
Answer: Its IC50 is < 100 nM.

Question: Which IC50 does the source give for O=C(Cn1c(-c2ccccc2)ncc(NCCCc2ccc(OC3COC3)cc2)c1=O)NCc1cc2cnccc2[nH]1 [Compound 103, N-((1H-pyrrolo[3,2-c]pyridine-2-yl)methyl)-2-(5-((3-(4-(oxetan-3-yl-oxy)phenyl)propyl)amino)-6-oxo-2-phenylpyrimidin-1(6H)-yl)acetamide] here?
Answer: Its IC50 is < 100 nM.

Question: How did the IC50 turn out when O=C(Cn1c(-c2ccccc2)ncc(NCCCc2ccc(S(F)(F)(F)(F)F)cc2)c1=O)NCc1cc2cnccc2[nH]1 [Compound 104, N-((1H-pyrrolo[3,2-c]pyridin-2-yl)methyl)-2-(6-oxo-5-((3-(4-(pentafluoro-lambda6-sulfaneyl)phenyl)propyl)-amino)-2-phenylpyrimidin-1(6H)-yl)acetamide] was run?
Answer: The IC50 was < 100 nM.

Question: Which IC50 does the source give for CS(=N)(=O)c1ccc(CCCNc2cnc(-c3ccccc3)n(CC(=O)NCc3cc4cnccc4[nH]3)c2=O)cc1 (centres unmarked) [Compound 105, N-((1H-pyrrolo[3,2-c]pyridine-2-yl)methyl)-2-(5-((3-(4-(S-methylsulfonimidoyl)phenyl)propyl)amino)-6-oxo-2-phenylpyrimidin-1(6H)-yl) acetamide] here?
Answer: The IC50 was < 100 nM.
